Measurements reported in the supplement of paper PMC10307832.

Tests used:
Assay in all cases: relative viability (nuclei count vs DMSO), 5 days (fraction); higher = more cells survive
GSK-J4 + Foretinib = compound: CCOC(=O)CCNc1cc(N2CCc3ccccc3CC2)nc(-c2ccccn2)n1 [GSK-J4] + COc1cc2c(Oc3ccc(NC(=O)C4(C(=O)Nc5ccc(F)cc5)CC4)cc3F)ccnc2cc1OCCCN1CCOCC1 [Foretinib] (partner 0.25 µM)
Procedure, shortened: (§1)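 Lung cancer cell lines in 1536-well plates were dosed by pin tool the day after seeding, either with one drug alone or with a fixed anchor-drug dose plus five library-drug doses (not always all listed) in √10 steps. After 5 days, cells were fixed and their nuclei stained in one step (final 0.05% Triton X-100, 1% formaldehyde, 1 ug/ml Hoechst), then counted on 4× images. Relative viability is the nuclei count in treated wells divided by that in vehicle wells. Values are medians of duplicate plates.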

AZ3146 + Navitoclax = compound: CN1CCC(CC1)OC2=CC(=C(C=C2)NC3=NC=C4C(=N3)N(C(=O)N4C)C5CCCC5)OC [AZ3146] + CC1(C)CCC(c2ccc(Cl)cc2)=C(CN2CCN(c3ccc(C(=O)NS(=O)(=O)c4ccc(N[C@H](CCN5CCOCC5)CSc5ccccc5)c(S(=O)(=O)C(F)(F)F)c4)cc3)CC2)C1 [Navitoclax] (partner 0.5 µM)
Procedure, shortened: as §1

AZ3146 + Decitabine = compound: CN1CCC(CC1)OC2=CC(=C(C=C2)NC3=NC=C4C(=N3)N(C(=O)N4C)C5CCCC5)OC [AZ3146] + Nc1ncn([C@H]2C[C@H](O)[C@@H](CO)O2)c(=O)n1 [Decitabine] (partner 2 µM)
Procedure, shortened: as §1

GSK-J4 + Decitabine = compound: CCOC(=O)CCNc1cc(N2CCc3ccccc3CC2)nc(-c2ccccn2)n1 [GSK-J4] + Nc1ncn([C@H]2C[C@H](O)[C@@H](CO)O2)c(=O)n1 [Decitabine] (partner 2 µM)
Procedure, shortened: as §1

Cell Line | relative viability (GSK-J4 + Foretinib; first compound 0.5 µM) | relative viability (GSK-J4 + Foretinib; first compound 1.581 µM) | relative viability (GSK-J4 + Foretinib; first compound 5 µM) | relative viability (GSK-J4 + Foretinib; first compound 15.81 µM) | relative viability (GSK-J4 + Foretinib; first compound 50 µM) | relative viability (AZ3146 + Navitoclax; first compound 0.08 µM) | relative viability (AZ3146 + Navitoclax; first compound 0.253 µM) | relative viability (AZ3146 + Navitoclax; first compound 0.8 µM) | relative viability (AZ3146 + Navitoclax; first compound 2.53 µM) | relative viability (AZ3146 + Navitoclax; first compound 8 µM) | relative viability (AZ3146 + Decitabine; first compound 0.08 µM) | relative viability (AZ3146 + Decitabine; first compound 0.253 µM) | relative viability (AZ3146 + Decitabine; first compound 0.8 µM) | relative viability (AZ3146 + Decitabine; first compound 2.53 µM) | relative viability (AZ3146 + Decitabine; first compound 8 µM) | relative viability (GSK-J4 + Decitabine; first compound 0.5 µM) | relative viability (GSK-J4 + Decitabine; first compound 1.581 µM) | relative viability (GSK-J4 + Decitabine; first compound 5 µM) | relative viability (GSK-J4 + Decitabine; first compound 15.81 µM) | relative viability (GSK-J4 + Decitabine; first compound 50 µM)
201T | 1.1 | 1.09 | 1.07 | 0.923 | 1.06 | 1.19 | 1.2 | 1.16 | 1.27 | 1.2 | 0.856 | 0.858 | 0.885 | 0.865 | 0.847 | 0.826 | 0.886 | 0.847 | 0.831 | 0.875
A549 | 0.84 | 0.874 | 0.907 | 0.911 | 0.828 | 1.12 | 1.29 | 1.23 | 0.467 | 0.0543 | 0.318 | 0.284 | 0.332 | 0.316 | 0.205 | 0.241 | 0.205 | 0.246 | 0.244 | 0.282
A-427 | 1.05 | – | 1.11 | 0.532 | 0.218 | 0.96 | 0.967 | 0.957 | 0.98 | 0.943 | 0.511 | 0.529 | 0.528 | 0.56 | 0.401 | 0.554 | 0.528 | – | 0.523 | 0.434
ABC-1 | 1.04 | 0.63 | 1.06 | 0.989 | 0.846 | – | – | – | – | – | 1.02 | 1.04 | 1.33 | 1.05 | 1.09 | 1 | 1.16 | 1.05 | 0.883 | 0.795
BEN | 0.857 | 0.593 | – | 0.588 | 0.53 | – | 0.0708 | 0.0628 | 0.0467 | 0.176 | – | 0.673 | 0.611 | 0.759 | 0.644 | 0.762 | 0.511 | 0.489 | 0.679 | 0.597
CAL-12T | 1.11 | 0.703 | 1.11 | 1.04 | 1.02 | 1.21 | 1.28 | 1.24 | 1.32 | 1.17 | – | – | – | – | – | – | – | – | – | –
COR-L23 | 0.927 | 0.901 | – | 0.897 | 0.822 | 1.05 | 1.08 | 0.984 | 1.03 | 0.923 | 0.377 | 0.461 | 0.418 | 0.467 | 0.369 | 0.393 | 0.384 | – | 0.386 | 0.352
COR-L 105 | 1.13 | 0.877 | 0.834 | 1.02 | 0.969 | 0.805 | 0.712 | 0.745 | 0.791 | 0.711 | 0.647 | 0.55 | 0.632 | 0.622 | 0.549 | 0.723 | – | 0.507 | 0.644 | 0.654
Calu-6 | 0.83 | 0.867 | 0.867 | 0.839 | 0.822 | 0.781 | 0.952 | 0.763 | 0.665 | 0.278 | – | – | – | – | – | – | – | – | – | –
ChaGo-K-1 | 0.995 | 0.907 | 0.971 | 0.895 | 0.72 | 1 | 1 | 0.897 | 0.996 | 0.672 | 0.509 | 0.502 | 0.509 | 0.531 | 0.501 | 0.535 | – | 0.557 | 0.479 | 0.471
